Values joined by “and” are separate entries in the source; they are usually repeats but may differ in a detail not shown here. Identical values can stand only once. Like-named read-outs stand apart in the source and are kept apart here.
What was measured:
[1] = cited from earlier work
[2] = Effect of verapamil, PEG 400 and EDTA on trans-enterocyte transport of CA; assay type: in vitro ADME, human; details: human, read-out: Papp AP to BL; for Papp A→B at 50 μM / Papp A→B at 75 μM / Papp A→B at 100 μM: Average of 0.5-3.0 h
Experimental: (§1) CA was dissolved in HBSS solution at 50, 75, and 100 μM. The HBSS solution containing CA combined with 0.5% Tween 80, 5 mmol/L EDTA or 5% PEG 400 was prepared. The cumulative migration (Qr), apparent permeability coefficient (Papp), and the Papp value of bi-direction transport of CA were calculated according to formulas.
(§2) The 0.5 mL HBSS solution containing CA (50, 75, and 100 μM) combined with 100 μmoL/L verapamil, 5% PEG 400, or 5 mmol/L EDTA was added to the AP side of the Transwell plate, and 1.5 mL HBSS solution was added to the BL side. The effect of verapamil, Tween 80, PEG 400, and EDTA on the trans-enterocyte of CA was investigated according to the method described above. The TEER value of each Transwell chamber was measured.
(§3) The cryopreserved Transwell samples were transferred to a 15 mL centrifuge tube, and any remaining liquid was fully washed using 1 mL of 50% methanol solution which was also transferred to the 15 mL centrifuge tube. The mixture was vortexed for 1 min, and 6 mL of ethyl acetate solution was added to the tube and vortexed for another 2 min. The mixture was centrifuged at 6000 rpm/min at 4 °C for 10 min. The supernatant was dried under vacuum, dissolved in 5% phosphoric acid methanol solution, and filtered through a 0.22 μm microporous membrane. The concentration of CA was determined by HPLC as described above.

Caco-2 cell monolayer = test: as above; assay type: in vitro ADME, human
Experimental: as §1, §2, §3

[3] = Tissue distribution of CA in mice by HPLC after oral gavage; assay type: in vivo; details: 50 mg/kg/daily oral gavage 7 days, 4 h after last gavage
From the text: The animal experiment protocol was approved by the Institutional Animal Care and Use Committee of Guangzhou Medical University (#GY2020-067, 30 July 2020). Male ICR mice aged 5–6 weeks were kept in a specific-pathogen-free environment with 12-h light/dark cycles. […] Both groups were allowed to eat and drink ad libitum. Four hours after the last gavage, the mice were anesthetized, and their eyeballs were removed for blood collection. They were sacrificed and immediately dissected in the supine position. Serum, major organs (heart, liver, lung, stomach, spleen, kidney, small intestine, cecum, and colon), and the contents of the stomach, small intestine, cecum, and colon were collected, weighed, and stored at −80 °C.
Tissue samples and the contents of the digestive tract were homogenized in ultrapure water at 55 Hz for 8 min. Tissue/content homogenate (1 mL) or serum (100 μL) was mixed with 1 mL of 50% methanol, and the mixture was vortexed for 2 min. The mixture was extracted with ethyl acetate three times (6, 3, and 3 mL of ethyl acetate) and vortexed again for 2 min. The sample was centrifuged at 5000 rpm/min at 4 °C for 15 min, and the upper organic phase was dried under vacuum. Then, it was dissolved in 5% phosphoric acid methanol solution and filtered through a 0.22 μm microporous membrane. Concentrations of CA in serum, tissue, and content samples were determined using HPLC. CA standard was added to all samples, and the recovery rate was calculated. The chromatographic conditions for HPLC analysis were as follows: C18 chromatographic column: 5 μm, 150 × 4.6 mm; column temperature: 25 °C; mobile phase: methanol/0.1% phosphoric acid solution at 85%/15%; flow rate: 1.0 mL/min; detection wavelength: 230 nm; injection volume: 10 μL.

[4] = Caco-2, CA 50 μM, + 5 mmoL/L EDTA
[5] = Caco-2, CA 75 μM, + 5 mmoL/L EDTA
[6] = Caco-2, CA 100 μM, + 5% PEG 400
[7] = Caco-2, CA 100 μM, + 5 mmoL/L EDTA
[8] = Caco-2, with verapamil 100 μmol/L, CA 50 μM, + 100 μmoL/L verapamil
[9] = Caco-2, with verapamil 100 μmol/L, CA 75 μM, + 100 μmoL/L verapamil
[10] = Caco-2, with verapamil 100 μmol/L, CA 100 μM, + 100 μmoL/L verapamil
[11] = Caco-2, with verapamil 100 μmoL/L, CA 75 μM, + 100 μmoL/L verapamil

## CC(C)c1cc2c(c(O)c1O)[C@@]1(C(=O)O)CCCC(C)(C)[C@@H]1CC2 [CA, Carnosic acid]
[1]; 64.3 and 90 mg/kg oral
  toxicity of orally administered CA: nontoxic
[1]; rats, 4 h after oral gavage
  circulating concentration: 0.39 µg/mL
[1]; rats, oral 64.3 ± 5.8 mg/kg
  main elimination route: fecal excretion
[1]; rats, oral
  overall bioavailability: 40–65%
[2]; Caco-2, CA 50 μM, + 5% PEG 400
  Papp A→B at 0.5 h, 50 μM: 3.76 ± 0.17 ×10⁻⁶ cm/s
  Papp A→B at 1 h, 50 μM: 3.96 ± 0.1 ×10⁻⁶ cm/s
  Papp A→B at 1.5 h, 50 μM: 2.35 ± 0.01 ×10⁻⁶ cm/s
  Papp A→B at 2 h, 50 μM: 1.86 ± 0.35 ×10⁻⁶ cm/s
  Papp A→B at 2.5 h, 50 μM: 1.89 ± 0.04 ×10⁻⁶ cm/s
  Papp A→B at 3 h, 50 μM: 2.34 ± 0.01 ×10⁻⁶ cm/s
  Papp A→B at 50 μM: 2.69 ± 0.04 ×10⁻⁶ cm/s
[2]; [4]
  Papp A→B at 0.5 h, 50 μM: 0.5 ± 0.01 ×10⁻⁶ cm/s
  Papp A→B at 1 h, 50 μM: 0.24 ± 0.08 ×10⁻⁶ cm/s
  Papp A→B at 1.5 h, 50 μM: 0.62 ± 0.02 ×10⁻⁶ cm/s
  Papp A→B at 2 h, 50 μM: 0.92 ×10⁻⁶ cm/s
  Papp A→B at 2.5 h, 50 μM: 0.95 ± 0.02 ×10⁻⁶ cm/s
  Papp A→B at 3 h, 50 μM: 1.49 ± 0.02 ×10⁻⁶ cm/s
  Papp A→B at 50 μM: 0.79 ± 0.03 ×10⁻⁶ cm/s
[2]; Caco-2, CA 75 μM, + 5% PEG 400
  Papp A→B at 0.5 h, 75 μM: 3.9 ± 0.1 ×10⁻⁶ cm/s
  Papp A→B at 1 h, 75 μM: 2.99 ± 0.09 ×10⁻⁶ cm/s
  Papp A→B at 1.5 h, 75 μM: 2.72 ± 0.46 ×10⁻⁶ cm/s
  Papp A→B at 2 h, 75 μM: 2.35 ± 0.1 ×10⁻⁶ cm/s
  Papp A→B at 2.5 h, 75 μM: 1.52 ± 0.06 ×10⁻⁶ cm/s
  Papp A→B at 3 h, 75 μM: 1.19 ± 0.06 ×10⁻⁶ cm/s
  Papp A→B at 75 μM: 1.45 ± 0.08 ×10⁻⁶ cm/s
[2]; [5]
  Papp A→B at 0.5 h, 75 μM: 0.92 ± 0.08 ×10⁻⁶ cm/s
  Papp A→B at 1 h, 75 μM: 1.9 ± 0.08 ×10⁻⁶ cm/s
  Papp A→B at 1.5 h, 75 μM: 1.94 ± 0.07 ×10⁻⁶ cm/s
  Papp A→B at 2 h, 75 μM: 2.08 ± 0.03 ×10⁻⁶ cm/s
  Papp A→B at 2.5 h, 75 μM: 1.28 ± 0.1 ×10⁻⁶ cm/s
  Papp A→B at 3 h, 75 μM: 0.57 ± 0.01 ×10⁻⁶ cm/s
  Papp A→B at 75 μM: 1.45 ± 0.05 ×10⁻⁶ cm/s
[2]; [6]
  Papp A→B at 0.5 h, 100 μM: 3.21 ± 0.47 ×10⁻⁶ cm/s
  Papp A→B at 1 h, 100 μM: 3.59 ± 0.1 ×10⁻⁶ cm/s
  Papp A→B at 1.5 h, 100 μM: 2.89 ± 0.05 ×10⁻⁶ cm/s
  Papp A→B at 2 h, 100 μM: 2.25 ± 0.02 ×10⁻⁶ cm/s
  Papp A→B at 2.5 h, 100 μM: 2.44 ± 0.01 ×10⁻⁶ cm/s
  Papp A→B at 3 h, 100 μM: 2.14 ± 0.02 ×10⁻⁶ cm/s
  Papp A→B at 100 μM: 2.76 ± 0.07 ×10⁻⁶ cm/s
[2]; [7]
  Papp A→B at 0.5 h, 100 μM: 0.38 ×10⁻⁶ cm/s
  Papp A→B at 1 h, 100 μM: 2.25 ± 0.09 ×10⁻⁶ cm/s
  Papp A→B at 1.5 h, 100 μM: 1.96 ± 0.07 ×10⁻⁶ cm/s
  Papp A→B at 2 h, 100 μM: 3.01 ± 0.03 ×10⁻⁶ cm/s
  Papp A→B at 2.5 h, 100 μM: 1.82 ± 0.08 ×10⁻⁶ cm/s
  Papp A→B at 3 h, 100 μM: 1.56 ± 0.07 ×10⁻⁶ cm/s
  Papp A→B at 100 μM: 1.83 ± 0.05 ×10⁻⁶ cm/s
[2]; [8]
  Papp A→B at 0.5 h, 50 μM: 1.98 ± 0.06 ×10⁻⁶ cm/s
  Papp A→B at 1 h, 50 μM: 1.89 ± 0.09 ×10⁻⁶ cm/s
  Papp A→B at 1.5 h, 50 μM: 1.84 ± 0.06 ×10⁻⁶ cm/s
  Papp A→B at 2 h, 50 μM: 2.08 ± 0.1 ×10⁻⁶ cm/s
  Papp A→B at 2.5 h, 50 μM: 0.95 ± 0.03 ×10⁻⁶ cm/s
  Papp A→B at 3 h, 50 μM: 1.37 ± 0.09 ×10⁻⁶ cm/s
[2]; [9]
  Papp A→B at 3 h, 75 μM: 0.69 ± 0.01 ×10⁻⁶ cm/s
  Papp A→B at 75 μM: 1.53 ± 0.04 ×10⁻⁶ cm/s
[2]; [10]
  Papp A→B at 0.5 h, 100 μM: 1.26 ± 0.02 ×10⁻⁶ cm/s
  Papp A→B at 1 h, 100 μM: 1.7 ± 0.01 ×10⁻⁶ cm/s
  Papp A→B at 1.5 h, 100 μM: 2.99 ± 0.03 ×10⁻⁶ cm/s
  Papp A→B at 2 h, 100 μM: 1.24 ± 0.02 ×10⁻⁶ cm/s
  Papp A→B at 2.5 h, 100 μM: 0.95 ± 0.05 ×10⁻⁶ cm/s
  Papp A→B at 3 h, 100 μM: 1.09 ± 0.02 ×10⁻⁶ cm/s
  Papp A→B at 100 μM: 1.53 ± 0.07 ×10⁻⁶ cm/s
[2]; Caco-2, with verapamil 100 μmoL/L, CA 50 μM, + 100 μmoL/L verapamil
  Papp A→B at 50 μM: 1.5 ± 0.02 ×10⁻⁶ cm/s
[2]; [11]
  Papp A→B at 0.5 h, 75 μM: 1.12 ± 0.01 ×10⁻⁶ cm/s
  Papp A→B at 1 h, 75 μM: 1.32 ± 0.01 ×10⁻⁶ cm/s
  Papp A→B at 1.5 h, 75 μM: 0.85 ± 0.03 ×10⁻⁶ cm/s
  Papp A→B at 2 h, 75 μM: 1.94 ± 0.06 ×10⁻⁶ cm/s
  Papp A→B at 2.5 h, 75 μM: 0.87 ± 0.1 ×10⁻⁶ cm/s
Caco-2 cell monolayer; 5 mmol/L EDTA
  increase of Papp (AP to BL) in the presence of EDTA vs control: ~ 1.5 fold
Caco-2 cell monolayer; from effect of verapamil and PEG 400 on Papp (AP to BL)
  active efflux / P-gp substrate status: could be a substrate of P-gp
[3]
  Concentration of CA in Cecal content: 0.15 nmol/g or mL and 0.15 ± 0.00 nmol/g or mL
  Concentration of CA in Cecum: 2965.1 nmol/g or mL and 2965.10 ± 3.31 nmol/g or mL
  Concentration of CA in Colon: 179.4 nmol/g or mL and 179.43 ± 0.26 nmol/g or mL
  Concentration of CA in Colonic content: 74.54 nmol/g or mL and 74.54 ± 0.21 nmol/g or mL
  Concentration of CA in Gastric content: 1.08 nmol/g or mL and 1.08 ± 0.00 nmol/g or mL
  Concentration of CA in Heart: 0.75 ± 0.00 nmol/g or mL
  Concentration of CA in Kidney: 0.66 ± 0.02 nmol/g or mL
  Concentration of CA in Liver: 10.56 ± 0.01 nmol/g or mL
  Concentration of CA in Lung: 1.68 ± 0.00 nmol/g or mL
  Concentration of CA in Serum: 15.22 ± 0.02 nmol/g or mL
  Concentration of CA in Small intestine: 1.87 nmol/g or mL and 1.87 ± 0.00 nmol/g or mL
  Concentration of CA in Small intestine content: 13.93 nmol/g or mL and 13.93 ± 0.01 nmol/g or mL
  Concentration of CA in Spleen: 13.42 ± 0.01 nmol/g or mL
  Concentration of CA in Stomach: 35.98 ± 0.09 nmol/g or mL
[3]; male, ICR, mouse, serum, read-out: CA detected in serum
  concentration at 4 h: 15.2 µM

From article PMC8698657, “Absorption and Transport Characteristics and Mechanisms of Carnosic Acid” (Biology, 2021)
